Measurements taken from patent US11203588B2, “Anti-cancer and splice modulating compounds and methods” (The Regents of the University of California, priority 2016, dated 2021).
In brackets after ≈: the same amount, converted by molar mass.

Tests used:
[1] = system: alternate splicing of MCL1 and BCL-X in CLL-B cells; test: RT-PCR analysis of alternate splicing (AS); type: cell-based, human (CLL patients); conditions: for alternate splicing (AS) events: H2A as unspliced loading control
[2] = system: intron retention in DNAJB1, ARF4, PRPF4, RIOK3, SF3A1, and U2AF2 in primary CLL-B cells; test: RT-PCR / qRT-PCR analysis of intron retention (IR); type: cell-based; conditions: six genes, 4 h treatment, RNU6A and GAPDH as controls
Experimental: CLL-B (5×10^6 cells/well) were treated with a given dose of compound from a DMSO stock solution over 4 h. RNA isolation and cDNA preparation, PCR reaction was performed in 20 μL of reaction volume as described previously.^S3 PCR conditions give by incubation at 94° C. for 3 min; 35 cycles of 94° C. for 30 s, 55-60° C. (annealing temperature: 55° C. for GAPDH, 53.6° C. for RNU6A, 58° C. for DNAJB1, 54° C. for SF3A1, 55° C. for PRPF4, 55° C. for ARF4, and 55° C. for U2AF2) for 30 s, and 72° C. for 1 min; followed by 72° C. for 5 min. PCR products were separated on a 2% agarose gel and stained with ethidium bromide.
cDNA was prepared using identical methods as used for RT-PCR analysis. The amount of unspliced RNA for different genes was determined using Power SYBR Green PCR master mix (Applied Biosystems) by qRT-PCR using specific primers designed for detection of the intron of each gene (Table 2). The qPCR was performed using 5 pM of each primer on 20 ng of the obtained cDNA. PCR conditions were as follows: one cycle of 50° C. for 2 min (UDG Incubation), one cycle of 95° C. for 10 min (UDG Inactivation), followed by 95° C. for 15 sec; 60° C. for 30 s for 40 cycles and adding a step for dissociation using a 7900 HT Fast Real Time PCR System (Applied Biosystems). Unspliced RNA levels were calculated using 2-ΔΔCT method.^S4 GAPDH was used as a control for normalization.

[3] = system: primary CLL-B cells; test: In vitro cytotoxicity, specific induced apoptosis (% SIA), flow cytometry; type: cell-based, human (CLL patients); conditions: for IC50: 48 h
Text: Peripheral blood mononuclear cells (PBMC) from CLL patients were obtained from the CLL Research Consortium (CRC) tissue bank. This protocol was approved by the institutional review board (IRB) of the University of California, San Diego. Blood samples were taken from two CLL patients after written informed consent for blood sample collection and confirmation of diagnosis for CLL diseases, The PBMCs were separated from heparinized venous blood by density gradient centrifugation using Ficoll-Hypaque media (GE Healthcare). The samples with >95% positively for leukemic B cells was confirmed by staining for CD5 and CD19 followed by assessment using flow cytometry. CLL-B cells were maintained in RPMI 1640 medium supplemented with 10% FBS, 2 mM L-glutamine, and 100 U/mL of penicillin and 100 μg/mL of streptomycin at 37° C. in an atmosphere containing 5% CO2.
The CLL-B cells (3×10^5 cells) were treated for 48 h with 10, 100, 300, and 1000 nM of 1a, 1b, 2 or 19 at 37° C. in an atmosphere containing 5% CO2. Fludarabine (F-ara-A) dosed at 10 μM was used as a control. The cells were centrifuged and labeled with CD19/CD5/DiOC6 and subjected to flow cytometry. The data was analyzed using FlowJo software. […] The dose-response curves were plotted to determine IC50 values using the GraphPad Prism version 6.0c software.

[4] = Solubility by capillary NMR with solvent 13C-satellites (QSCS); type: physicochemical
Text: (§1) Early studies indicate that 2 was more soluble and stable in aqueous buffers than FD-895 (1a).

[5] = Stability in aqueous buffer by NMR monitoring; type: physicochemical; conditions: after 744 h (1 month), D2O/DMSO-d6 (10:1) at 37° C.
Text: as §1

[6] = primary CLL-B cells from two CLL patients

Molecule | alternate splicing (AS) events [1] | splice modulation via intron retention (IR) [2] | IC50 ([3]; Homo sapiens, primary CLL-B cells, both sets of cells) | MCL1 long (anti-apoptotic) and short (pro-apoptotic) isoform expression [1] | solubility (soluble up to) ([4]; D2O/DMSO-d6 (10:1) at 23° C.) | IC50 [3, 6] | decomposition (stability) [5] | solubility ([4]; 23 °C, aqueous with cosolvent or surfactant or cyclodextrin) | IC50 ([3]; Homo sapiens, primary CLL-B cells from two CLL patients) | loss of activity when compared to FD-895 (1a) ([3]; primary CLL-B cells, IC50 based)
CC[C@H](OC)[C@@H](C)/C=C/[C@H](O)[C@@H](C)/C=C/C=C(\C)[C@H]1O[C@H](OC)[C@H](OC)[C@@H](OC)[C@@H]1OC [Alkene 19, (2E,4E,6S,7S,8E,10S,11S)-11-methoxy-6,10-dimethyl-2-((2R,3R,4S,5R,6S)-3,4,5,6-tetramethoxytetrahydro-2H-pyran-2-yl)trideca-2,4,8-trien-7-ol] | did not induce AS | inactive for all six genes | > 50 µM |  |  |  |  |  |  | 
CCC(OC)C(C)C1OC1C(O)C(C)/C=C/C=C(\C)C1OC(=O)CC(O)CCC(C)(O)C(OC(C)=O)/C=C/C1C (stereo not drawn) [Compound 1a, FD-895, reference compound] |  |  |  | decrease in the long (anti-apoptotic) form and increased the expression of short (pro-apoptotic) form of MCL1 | 15 ± 5 mM (≈ 8.5 mg/mL) | 0.0541 ± 0.0075 µM |  |  |  | 
CC[C@H](OC)[C@@H](C)[C@H]1O[C@@H]1[C@H](O)[C@@H](C)/C=C/C=C(\C)[C@H]1O[C@H](OC)[C@H](OC)[C@@H](OC)[C@@H]1OC [Compound 2, (1R,2S,3E,5E)-1-((2R,3R)-3-((2R,3S)-3-methoxypentan-2-yl)oxiran-2-yl)-2-methyl-6-((2R,3R,4S,5R,6S)-3,4,5,6-tetramethoxytetrahydro-2H-pyran-2-yl)hepta-3,5-dien-1-ol] | induced alternate splicing (AS) events | complementary splice modulation in all six genes |  | decrease in the long (anti-apoptotic) form and increased the expression of short (pro-apoptotic) form of MCL1 |  |  | no signs of decomposition | 95 ± 5 mM (≈ 44.9 mg/mL) | 0.153 ± 0.0118 µM | ~3 fold
pladienolide B [Compound 1b, reference compound] |  |  |  | decrease in the long (anti-apoptotic) form and increased the expression of short (pro-apoptotic) form of MCL1 |  | 0.0844 ± 0.0012 µM |  |  |  | 
